Experimental data as given in ChEMBL document CHEMBL1140041, “Flavylium salts as in vitro precursors of potent ligands to brain GABA-A receptors” (Bioorg Med Chem Lett, 2008).
Active and inactive are the calls of the source. No cut-off for these calls is given here.

Legend:
Assay type in all cases: cell membranes
Rattus norvegicus = species on record: Rattus norvegicus; test: Displacement of [3H]flumazenil from GABAA receptor in Wistar rat cortical membrane at 10 uM
[1] = Displacement of [3H]flumazenil from GABAA receptor in Wistar rat cortical membrane
[2] = Displacement of [3H]flumazenil from GABAA receptor in Wistar rat cortical membrane preincubated for 15 mins
[3] = Displacement of [3H]flumazenil from GABAA receptor in Wistar rat cortical membrane preincubated for 24 hrs

Ki [1] [nM]	Structure (SMILES)	also measured
260	Oc1ccc2ccc(-c3ccccc3)[o+]c2c1	
60	COc1ccc(-c2ccc3cc(OC)ccc3[o+]2)cc1	Ki [2]: 18 nM; Ki [3]: 18 nM
180	COc1ccc2[o+]c(-c3ccccc3)ccc2c1	
7800	COc1ccc(-c2ccc3cc(OC)c(O)cc3[o+]2)cc1	
1500	Oc1ccc(-c2ccc3cc(O)ccc3[o+]2)cc1	
480	COc1ccc(-c2ccc3ccccc3[o+]2)cc1	
1800	COc1ccc2ccc(-c3ccccc3)[o+]c2c1	

Further lines, the compound ahead of its results:

Structure (SMILES)	Ki [1] [nM]	also measured
Oc1ccc(-c2ccc3ccc(O)c(O)c3[o+]2)cc1		Activity (Rattus norvegicus): inactive
COc1ccc(-c2ccc3cc(Br)ccc3[o+]2)cc1	140	Ki [2]: 66 nM; Ki [3]: 66 nM
COc1ccc(C(=O)/C=C/c2cc(OC)ccc2O)cc1		Ki [3]: 28 nM
COc1ccc2[o+]c(-c3ccc(O)cc3)ccc2c1	160	
COc1ccc(-c2ccc3ccc(OC)cc3[o+]2)cc1	1200	
Oc1ccc(-c2ccc3ccc(O)cc3[o+]2)cc1	280	
Oc1ccc(-c2ccc3cccc(O)c3[o+]2)cc1		Activity (Rattus norvegicus): inactive
COc1cc(-c2ccc3ccccc3[o+]2)cc(OC)c1OC		Activity (Rattus norvegicus): inactive
COc1ccc(-c2ccc3ccccc3[o+]2)cc1OC		Activity (Rattus norvegicus): inactive
COc1ccc(-c2ccc3cc(O)ccc3[o+]2)cc1	320	
COc1ccc2[o+]c(-c3ccc(OC)c(OC)c3)ccc2c1		Activity (Rattus norvegicus): inactive
